# Columns and labels:
# [1] = Toxicity monitored by blood sampling and clinical side effects, patient cohorts; assay type: in vivo, patients; details: patient cohort; for change in thrombocyte or white blood cell count: during therapy; for dysfunction of salivary glands: reported side effect; for tolerability of the treatment: lab tests every 4 weeks, clinical side effects every 8 weeks
# Description: Toxicity was monitored by blood sampling.
# Hematologic response was evaluated every 4 weeks per lab tests and clinical side effects were monitored every 8 weeks.
# [2] = test system: PSMA expressing cancers; test: Treatment response monitored by PSA values in blood, patient cohorts; assay type: in vivo, patients; details: for patients in PSA response / patients in PSA response (percentage): at week-24
# Description: 20 Patients were treated 3 times with activities of 100 kBq/kg body weight of Ac-225-PSMA-617 in two month intervals.
# Treatment response was monitored by PSA values in blood and with PET/CT (positron emission tomography-computed tomography) with Ga-68-PSMA-HBED-CC (also called Gallium-68-PSMA11) before therapy and after the third therapy.
# Experiments have been conducted to compare the efficiency of the Ac-225-radiopharmaceuticals as used in the present invention, such as Ac-225-PSMA-617, with that of non-Ac-225-radiopharmaceuticals comprising the same targeting compound, but chelated e.g. with Lu-177, such as a radionuclide Lu-177-PSMA-617.
# [3] = test system: metastatic castration-resistant prostate cancer (mCRPC); test: Treatment of individual mCRPC patients A and B: PSA level and PSMA PET/CT restaging; assay type: in vivo
# Description: Clinical Course of Patient A presented with diffuse red marrow infiltration of mCRPC (this physical condition was considered a contraindication for treatment with β-emitters). Patient A was treated with 3 cycles of 9-10 MBq (100 kBq per kilogram of body weight) of Ac-225-PSMA-617 at bimonthly intervals.
# (§1) Patient B was initially treated with Lu-177-PSMA-617 (7.4 GBq per cycle), which was offered as salvage therapy. The initial PSA level was 294 ng/ml. […] Therapy was changed to Ac-225-PSMA-617, and the patient received 3 cycles of 6.4 MBq (100 kBq per kilogram of body weight) at bimonthly intervals.
# [4] = test system: PSMA expressing cancers; test: Treatment response monitored by PSA values in blood, patient cohorts; assay type: in vivo, patients; details: comparative example
# [5] = Laboratory test follow-up and side effects of individual mCRPC patients A and B; assay type: in vivo
# Text: After each cycle, the blood cell count and alkaline phosphatase level were checked every 2 week. The platelet level never dropped below 100/n1 (grade 1 according to the Common Terminology Criteria for Adverse Events, version 4.0), the total white blood cell count never dropped below 2.5/n1 (grade 1), and the hemoglobin level never dropped below 9.5 g/dl (grade 2) (FIG. 13A). […] A concordant decline in PSA level and alkaline phosphatase level (FIG. 13B) further underlined the excellent treatment response.
# as §1
# [6] = 30 patients, eight weeks after the first treatment cycle
# [7] = patient A, checked every 2 week after each cycle
# [8] = eight weeks after the first treatment cycle, 20 patients, 100 kBq/kg body weight
# [9] = sixteen weeks after the first treatment cycle, 20 patients, 100 kBq/kg body weight
# [10] = twenty-four weeks after the first treatment cycle, 20 patients, 100 kBq/kg body weight
# [11] = patient A, after additional 6 MBq consolidation therapy
structure (smiles),measurement,setting,value
"O=C([O-])CN1CCN(CC(=O)[O-])CCN(CC(=O)NCC2CCC(C(=O)N[C@@H](Cc3ccc4ccccc4c3)C(=O)NCCCC[C@H](NC(=O)N[C@@H](CCC(=O)O)C(=O)O)C(=O)O)CC2)CCN(CC(=O)[O-])CC1.[177Lu+3] (stereo partly shown) [Lu-177-PSMA-617, reference compound]",change in thrombocyte or white blood cell count,[1],no significant change
same,dysfunction of salivary glands,[1],Mild moderate dysfunction of salivary glands
same,tolerability of the treatment,[1],well tolerated
same,patients in PSA response,[2],9/30
same,patients in PSA response (percentage),[2],30%
same,response rate in comparison to Ac-225-PSMA-617 group,[2]; comparison of treated groups,lower response rate
same,"lesions on PSMA PET/CT, restaging","[3]; patient B, after 2 cycles of Lu-177-PSMA-617",tumor progression
same,PSA level,"[3]; patient B, after cycle 2, 7.4 GBq per cycle, initial PSA level 294 ng/ml",419 ng/mL
same,patients presenting a decrease in PSA,[4]; [6],21/30
same,patients with decrease in PSA >50%,[4]; [6],16 patients
same,patients presenting a decrease in PSA,"[4]; 30 patients, twenty-four weeks after the first treatment cycle, some patients dropped out",9/30
same,patients with decrease in PSA >50% among those with PSA decrease,[4]; twenty-four weeks after the first treatment cycle,all of them
"O=C(O)CCC(NC(=O)NC(CCCCNC(=O)C(Cc1cccc2ccccc12)NC(=O)C1CCC(CNC(=O)CN2CCN(CC(=O)O)CCN(CC(=O)O)CCN(CC(=O)O)CC2)CC1)C(=O)O)C(=O)O (stereo not shown) [Ac-225-PSMA-617, metal not drawn]",change in thrombocyte or white blood cell count,[1],no significant change
same,dysfunction of salivary glands,[1],Several patients reported dysfunction of salivary glands
same,tolerability of the treatment,[1],well tolerated
same,clinically reported side effect,[5]; patient A,Moderate but enduring dysfunction of salivary glands
same,"hemoglobin level, CTCAE grade",[5]; patient A,grade 2
same,"platelet level, grade according to Common Terminology Criteria for Adverse Events, version 4.0",[5]; patient A,grade 1
same,"total white blood cell count, CTCAE grade",[5]; patient A,grade 1
same,hematologic toxicity (blood cell count),"[5]; patient A, FIG. 13A",moderate hematologic toxicity
same,hemoglobin level (lowest),[5]; [7],≥ 9.5 g/dL
same,platelet level (lowest),[5]; [7],≥ 100 /n1
same,total white blood cell count (lowest),[5]; [7],≥ 2.5 /n1
same,reported side effect,[5]; patient B,severe dysfunction of salivary glands
same,hematologic toxicity (laboratory tests),"[5]; patient B, 3 cycles of 6.4 MBq",no relevant hematologic toxicity
same,patients in PSA response,[2],15/28
same,patients in PSA response (percentage),[2],54%
same,patients with decrease in PSA >25%,[2]; [8],17 patients
same,patients with decrease in PSA >50%,[2]; [8],12 patients
same,patients presenting a decrease in PSA,"[2]; eight weeks after the first treatment cycle, 20 patients, 100 kBq/kg body weight, 3 times in two month intervals",19/20
same,patients presenting a decrease in PSA,[2]; [9],15/20
same,patients with decrease in PSA >50%,[2]; [9],14 patients
same,patients presenting a decrease in PSA,[2]; [10],15/20
same,patients with decrease in PSA >50%,[2]; [10],12 patients
same,"tumor markers (PSA, alkaline phosphatase)","[3]; patient A, FIG. 13B",Decline of tumor markers to none measurable or reference range
same,PSA level,[3]; [11],less than 0.1 ng/ml
same,imaging response,[3]; [11],complete imaging response
same,previously PSMA-positive lesions on PSMA PET/CT,"[3]; patient A, two months after 3 cycles of 9-10 MBq (100 kBq/kg) at bimonthly intervals",visually disappeared
same,PSA level,"[3]; patient A, two months after 3 cycles of 9-10 MBq, dropped from more than 3,000 ng/ml",0.26 ng/mL
same,restaging based on PSMA PET/CT,"[3]; patient B, after 2 cycles of 6.4 MBq (100 kBq/kg) at bimonthly intervals, after failed Lu-177-PSMA-617",partial response
same,restaging based on PSMA PET/CT,"[3]; patient B, after 3 cycles of 6.4 MBq (100 kBq/kg) at bimonthly intervals",complete remission
same,PSA level,"[3]; patient B, after 3 cycles of 6.4 MBq, below the measurable level",< 0.1 ng/mL
same,restaging on 68-Ga-PSMA-11 PET/CT,"[3]; patient B, after second and third cycles, FIG. 14C, 14D",impressive response
